Reference: the OPERA property sets (Mansouri et al. 2018)
Values after ≈ are worked out from the molar mass of the structure shown.

First: ON=C1CCCCC1
Second: O=C1CCCC1
The logP of the first is higher: 0.84 for the first, 0.38 for the second.

Compared with `CC1COCc2cc3c(cc21)C(C)(C)C(C)C3(C)C` (stereo not drawn), `CC(C)(C)C1=CC(=O)C=C(C(C)(C)C)C1=O` is lower in logP: 5.9 for the first, 4.42 for the second.

First: Cc1ccc(S(=O)(=O)N(C)C(=O)c2ccccc2)cc1
Second: Cc1ccc(-c2ccccc2)cc1
The logP of the first is lower: 2.95 for the first, 4.63 for the second.

Compared with `Nc1cccc2cccc(N)c12`, `c1ccc2c(c1)cc1ccc3cccc4ccc2c1c34` is higher in logP: 1.78 for the first, 6.13 for the second.

Compared with `CCN1CC=C(c2ccccc2)CC1`, `CN1CC=C(c2cccc(N)c2)CC1` is lower in logP: 3.18 for the first, 1.47 for the second.

First: COc1cccc(C=O)c1
Second: COc1c2occc2cc2ccc(=O)oc12
The logP of the first is lower: 1.71 for the first, 2 for the second.

Going from `NS(=O)(=O)c1cc2c(cc1C(F)(F)F)NC(Cc1ccccc1)NS2(=O)=O` (stereo not drawn) to `CC(C)=CC1C(C(=O)OCc2coc(Cc3ccccc3)c2)C1(C)C` (stereo not drawn), the logP rises from 1.89 to 6.14.

Compared with `CCCCCCCCOC(=O)c1ccc(N)cc1`, `CCCCCCc1ccc(N)cc1` is lower in logP: 5.02 for the first, 4.21 for the second.

`N#CC(C#N)=Cc1ccc(Cl)o1` and `Nc1ccc([N+](=O)[O-])cc1Cl` are within 0.2 log units of each other in logP: 2.17 for the first, 2.14 for the second.

Compared with `CC(C(=O)Nc1ccc([N+](=O)[O-])c(C(F)(F)F)c1)C(F)(F)F` (stereo not drawn), `O=[N+]([O-])c1ccc(Cl)cc1Cl` is lower in logP: 3.71 for the first, 3.07 for the second.

First: CC(=O)Nc1nc2c(ncn2COCCO)c(=O)[nH]1
Second: CC(=O)Nc1nc(=O)c2ncn(COCCOC(C)=O)c2[nH]1
The logP of the first is lower: -1.3 for the first, -0.85 for the second.

Going from `c1ccc2c(c1)ccc1cc3ccc4ccccc4c3cc12` to `c1ccc2c(c1)ccc1c3ccccc3ccc21`, the logP falls from 6.54 to 5.81.

First: CN1CCN(Cc2cccc(COc3ccccc3)c2)CC1
Second: ClC1(Cl)CC1(c1ccccc1)c1ccccc1
The logP of the first is lower: 3.05 for the first, 4.88 for the second.

Going from `CC(=O)OC(c1ccc(Cl)c(Cl)c1)C(Cl)(Cl)Cl` (stereo not drawn) to `Clc1cc2c(Cl)ccc(Cl)c2c(Cl)c1Cl`, the logP rises from 4.92 to 6.8.

First: O=C(Nc1ccc(O)cc1)C(Cl)Cl
Second: CC(C)NCC(O)c1ccc(NS(C)(=O)=O)cc1 (stereo not drawn)
The logP of the first is higher: 1.6 for the first, 0.24 for the second.

Compared with `CCN(CC)P(=O)(N(CC)CC)N(CC)CC`, `CCN(CC)P(=O)(N(C)C)N(C)C` is lower in logP: 2.53 for the first, 0.66 for the second.

Compared with `Oc1ccc2c(c1)OCC1c3cc4c(cc3OC21)OCO4` (stereo not drawn), `Cc1cc(Cc2c(Cl)cccc2Cl)c(Cl)cc1Cl` is higher in logP: 2.61 for the first, 6.73 for the second.

`CC1CCCCC1O` (stereo not drawn) and `N[C@@H](Cc1ccc(O)c(O)c1)C(=O)OC1CCCCC1` are within 0.2 log units of each other in logP: 1.82 for the first, 1.79 for the second.

`N#Cc1cc(-c2ccncc2)cnc1NCCO` and `CCCS(=O)c1ccc2[nH]c(NC(=O)OC)nc2c1` (stereo not drawn) are within 0.2 log units of each other in logP: 1.17 for the first, 1.27 for the second.

First: Clc1cc2c(Cl)c(Cl)c(Cl)c(Cl)c2c(Cl)c1Cl
Second: Cc1c(Cl)ccc(Cc2ccc(Cl)cc2Cl)c1Cl
The logP of the first is higher: 8.2 for the first, 7.2 for the second.

`CCC(=O)n1ncc2c(O)ncnc21` and `OCC1CC(F)C(n2cnc3c(Cl)ncnc32)O1` (stereo not drawn) are within 0.2 log units of each other in logP: 0.3 for the first, 0.32 for the second.

Going from `Nc1ccc([N+](=O)[O-])cn1` to `O=[N+]([O-])c1ccc(Oc2c(Cl)cc(Cl)cc2Cl)cc1`, the logP rises from 0.65 to 4.97.

First: NS(=O)(=O)c1nn2c(=Nc3ccc(F)cc3)snc2s1
Second: CC(=O)OCCN(CCC#N)c1ccc(N=Nc2nc3ccc([N+](=O)[O-])cc3s2)cc1
The logP of the first is lower: 2.81 for the first, 4.08 for the second.

Going from `C[Si]1(C)O[Si](C)(C)O[Si](C)(C)O[Si](C)(C)O1` to `C[N+](C)(C)CCCl.[Cl-]`, the logP falls from 6.74 to -3.8.

Compared with `Cc1ccc(N)cc1C`, `Cc1cc(C)c(N)cc1C` is higher in logP: 1.84 for the first, 2.27 for the second.

First: COP(N)(=S)Oc1ccccc1C(=O)OC(C)C (stereo not drawn)
Second: COc1cccc(OC)c1OCCN(C)C
The logP of the first is higher: 2.7 for the first, 1.05 for the second.

`C=CC(=O)OCCOC` and `COCC(C)OC(C)=O` (stereo not drawn) are the same in logP: 0.56 for the first, 0.56 for the second.

Compared with `CCCCNC(=O)CCC(NS(=O)(=O)c1ccc(C)cc1)C(=O)O` (stereo not drawn), `CCCCC(OC(Cc1ccccc1)C(=O)N1CCC(OCOC)CC1)C(=O)NC(CC1CCCCC1)C(O)CC(C(=O)NCCCNC(=NC#N)NC)C(C)C` (stereo not drawn) is higher in logP: 0 for the first, 4.4 for the second.

Going from `NCCc1nccs1` to `CCCNC1=NC(=O)C(=Cc2ccc([N+](=O)[O-])o2)S1`, the logP rises from 0.16 to 1.24.

Going from `CCCCCCCCCC1(CC)C(=O)NC(=O)NC1=O` to `CCCCN(CCC)N=O`, the logP falls from 4 to 2.09.

First: CC(C)(C)c1cccc(OP(=O)(Oc2ccccc2)Oc2ccccc2)c1
Second: O=C1CC(c2ccccc2)Oc2ccccc21 (stereo not drawn)
The logP of the first is higher: 5.12 for the first, 3.14 for the second.

Going from `Brc1ccc(O[Si]23OCCN(CCO2)CCO3)cc1` to `Clc1cc(Cl)cc(O[Si]23OCCN(CCO2)CCO3)c1`, the logP rises from 0.58 to 1.22.

First: CC=CCCCCC
Second: CC(CCl)OC(C)CCl (stereo not drawn)
The logP of the first is higher: 4.51 for the first, 2.48 for the second.

Compared with `Clc1ccc2ccc(Cl)cc2c1`, `C#CC(C)(C)NC(=O)c1cc(Cl)cc(Cl)c1` is lower in logP: 4.81 for the first, 3.43 for the second.

Compared with `C[C@H](CCC(=O)NCC(=O)O)[C@H]1CC[C@H]2[C@@H]3[C@H](O)C[C@@H]4C[C@H](O)CC[C@]4(C)[C@H]3C[C@H](O)[C@]12C`, `Cc1nc(N)c2ncn([C@@H]3O[C@H](CO)C[C@@H]3F)c2n1` is lower in logP: 1.65 for the first, 0.12 for the second.

Compound `COCc1ccc(COC)cc1` has a logP of 1.28.

`COC(=O)CCC(=O)OC` and `CC(C)CC=O` are within 1.5-fold of each other in solubility: 171 mM (≈ 25000 µg/mL) for the first, 163 mM (≈ 14000 µg/mL) for the second.

Compared with `CCOP(=S)(OCC)Oc1cc(C)nc(C(C)C)n1`, `CC(=O)OCCN(CCC#N)c1ccc(N=Nc2nc3ccc([N+](=O)[O-])cc3s2)cc1` is 83-fold lower in solubility: 0.131 mM (≈ 40 µg/mL) for the first, 0.00157 mM (≈ 0.69 µg/mL) for the second.

First: O=C([O-])c1ccccc1.[Na+]
Second: O=[N+]([O-])c1cccc(O)c1
The solubility of the first is 40-fold higher: 3860 mM for the first, 97.1 mM (≈ 13500 µg/mL) for the second.

`O=P(OC(Cl)CCCl)(OC(Cl)CCCl)OC(Cl)CCCl` (stereo not drawn) showed a solubility of 0.232 mM (≈ 100 µg/mL).
